{"source": "patent US9822368B2", "about": "“Modulators of intracellular chloride concentration for treating down syndrome” (Fondazione Istituto Italiano di Tecnologia, priority 2013, dated 2017)", "key": {"[1]": {"system": "CA1 pyramidal neurons", "experiment": "Cell-attached recording of spontaneous spiking activity in acute hippocampal slices", "format": "cell-based, Ts65Dn mice", "details": "Ts65Dn neurons"}, "[2]": {"system": "Ts65Dn mice", "experiment": "Novel object recognition task", "format": "in vivo", "details": "for object novelty discrimination (novel object recognition task): Ts65Dn mice", "description": "(§1) FIG. 5 represents the effect of bumetanide systemic treatment on cognitive functions in behavioral tasks in Ts65Dn mice. […] (B) Top, schematic representation of the contextual fear conditioning test. […] (C) Top, schematic representation of the object location test. […] (D) Top, schematic representation of the novel object recognition task. […] For all panels, histograms represent average±SEM, whereas circles indicate data from single animals."}, "[3]": {"system": "Ts65Dn mice", "experiment": "Object location test", "format": "in vivo", "description": "as §1"}, "[4]": {"system": "hippocampal CA3 pyramidal neurons", "experiment": "Whole-cell voltage clamp recordings of spontaneous excitatory postsynaptic currents (sEPSCs) in acute brain slices", "format": "cell-based, Ts65Dn mice", "details": "acute bumetanide application, P15 Ts65Dn slices, -70 mV", "description": "FIG. 1 represents the effect of acute bumetanide on the spontaneous activity in Ts65Dn mice at P15 compared to control values. Whole-cell voltage clamp recordings of spontaneous excitatory postsynaptic currents (sEPSCs) at −70 mV from individual hippocampal CA3 pyramidal neurons in acute […] brain slices from P15 Ts65Dn. (A) Representative traces of sEPSCs recorded from Ts65Dn mice in control and in the presence of bumetanide. (B) Average values of frequency of sEPSCs recorded in control mice (n=9), in Ts65Dn mice (n=9) **p<0.006 (two-tails two-samples t-test) and with bumetanide application (n=9), ***p<0.001 (two-tails paired t-test)."}, "[5]": {"system": "Ts65Dn mice", "experiment": "Contextual fear conditioning test", "format": "in vivo", "details": "for associative memory (contextual fear conditioning): Ts65Dn mice", "description": "as §1"}, "[6]": {"system": "hippocampal CA3CA1 LTP", "experiment": "Hippocampal CA3-CA1 LTP (fEPSP slope after TBS) in hippocampal slices", "format": "cell-based, Ts65Dn mice", "details": "bath application of bumetanide (10 μM), Ts65Dn slices, last 5 min of recordings, 60 min after TBS", "procedure": "FIG. 4 represents the effect of bumetanide bath application on hippocampal CA3CA1 LTP in Ts65Dn mice. […] Numbers in parentheses: number of animals utilized. Insets: Average of 10 fEPSP traces recorded for each experimental group before (continuous line) and 60 min after TBS (dashed line). Stimulus artefacts have been deleted from traces for clarity. Scale bars: vertical, 1 mV; horizontal, 10 ms."}, "[7]": {"system": "CA1 hippocampal pyramidal neurons", "experiment": "Gramicidin perforated patch-clamp of GABA currents (reversal potential EC1) in hippocampal slices", "format": "cell-based, Ts65Dn and WT mice", "details": "for EC1 values: 20 min after bath application of bumetanide (10 μM)", "description": "The vertical dotted lines indicate the value of the reversal potential on the x axis. Insets, sample traces of GABA-induced currents at different holding potentials. Scale bars: vertical, 50 pA; horizontal, 50 ms. […] Average resting potentials (dotted lines) were not different in Ts65Dn and WT neurons."}, "[8]": {"system": "children with Down syndrome", "details": "even at doses associated with adverse effects; cited from earlier work"}, "[9]": {"details": "summary statement, duration not stated"}}, "note": "Entries after “also recorded” stand apart in the source; their conditions may differ."}
{"smiles": "NCCCC(=O)O", "note": "[GABA]", "values": [{"measurement": "spike frequency", "setting": "[1]; bath application of GABA (10 μM), 10-12 weeks of age", "result": "increased spike frequency"}]}
{"smiles": "CCCCNc1cc(C(=O)O)cc(S(N)(=O)=O)c1Oc1ccccc1", "note": "[bumetanide]", "values": [{"measurement": "novel object recognition test", "setting": "[2]; [9]", "result": "rescues the behavioral deficient novel object recognition"}, {"measurement": "object novelty discrimination (novel object recognition task)", "setting": "[2]; treatment for 1 week", "result": "restored object novelty discrimination"}, {"measurement": "object novelty discrimination (novel object recognition task)", "setting": "[2]; treatment for 4 weeks", "result": "restored object novelty discrimination"}, {"measurement": "spatial memory (object location test)", "setting": "[3]; after 1 week of treatment", "result": "rescued spatial memory deficits"}, {"measurement": "spatial memory (object location test)", "setting": "[3]; after 4 weeks of treatment", "result": "rescued spatial memory deficits"}, {"measurement": "ongoing excitatory glutamatergic activity (frequency of sEPSCs)", "setting": "[4]", "result": "reduces elevated glutamatergic activity"}, {"measurement": "spike frequency increase induced by GABA", "setting": "[1]; co-treatment GABA and bumetanide (10 μM)", "result": "reverted this effect"}, {"measurement": "associative memory (contextual fear conditioning)", "setting": "[5]; bumetanide systemic treatment for 1 week (1W)", "result": "rescued memory deficit"}, {"measurement": "associative memory (contextual fear conditioning)", "setting": "[5]; bumetanide systemic treatment for 4 weeks (4W)", "result": "rescued memory deficit"}, {"measurement": "memory tests", "setting": "[5]; [9]", "result": "rescues the behavioral deficient novel object recognition and memory tests"}, {"measurement": "LTP (increase in the slope of fEPSP)", "setting": "[6]", "result": "restores LTP; also recorded: rescued this deficit"}, {"measurement": "EC1 values", "setting": "[7]; Ts65Dn cells", "result": "rescued the depolarized EC1"}, {"measurement": "EC1 values", "setting": "[7]; WT mice", "result": "unaltered"}, {"measurement": "polarity of the actions of GABA", "setting": "[7]; Ts65Dn mice, summary statement", "result": "restores LTP, hyperpolarizing GABA actions"}]}
{"smiles": "NC(=O)CN1CCCC1=O", "note": "[piracetam]", "values": [{"measurement": "cognitive and behavioral measures", "setting": "[8]", "result": "neither cognitive nor behavioral measures demonstrated improvement"}]}
